The record followed here is a melting point compilation (Tetko et al.; mined from patent text by program, amines drawn as free bases though some values may be those of a salt).

The compound `CCOC(=O)C(=O)NNC(=O)c1cc2cccc(N(C)S(=O)(=O)c3cccs3)c2[nH]1` showed a melting point of 133 to 134 °C.

For `CC1(C)CCC(C)(C)c2cc3c(cc21)OCC=C3Cc1ccc(C(=O)O)cc1`, the melting point lay in the range of 200 to 201 °C.

Compound `O=C(NC1CCC(OCc2ccccc2)CC1)NC12CC3CC(CC(C3)C1)C2` (stereo unspecified) yielded a melting point of 181 °C.

Consider `CC(C)OC(=O)CC(NCCCN(C)C)C(=O)O` (stereo unspecified), for which the melting point lay in the range of 164 to 166 °C.

Turning to `N#Cc1ccc(-c2ccc(-c3ccc(Br)o3)o2)nc1`, the melting point lay within 143 to 145 °C.

Compound `CCOC(=O)c1cc2c(C)cccc2n1CCCC(=O)O` had a melting point of 132 to 133 °C.

Take `COC(=O)C1=CC(=O)CC(c2ccc(Cl)c(OC)c2F)N1` (stereo unspecified): the melting point is 165 to 166 °C.

In turn, `N#CCCNC(=S)C1=CC(CF)(CF)Oc2ccc(C(F)(F)C(F)(F)F)cc21` displayed a melting point of 108 to 109 °C.

Turning to `CC(=O)Nc1ccc(O[C@H](c2ccc([N+](=O)[O-])cc2)[C@@H](O)CO)cc1`, the melting point fell in the range of 110 to 111 °C.

For the compound `COP(=O)(OC)OCN1C(=O)NC(c2ccccc2)(c2ccccc2)C1=O`, the melting point fell in the range of 123 to 124 °C.

In turn, `CCOC(=O)CN1C(=O)C2(COc3cc(F)c(F)cc32)c2c(Br)cccc21` (stereo unspecified) returned a melting point of 133 to 134 °C.

Take `N#Cc1ccccc1C#CC1(C(F)(F)F)OC(=O)Nc2ccc(Cl)cc21` (racemic): the melting point fell in the range of 245 to 246 °C.

In turn, `Oc1nc(Nc2ccc(O)c(Cl)c2)cc(-c2ccccc2)n1` displayed a melting point of 280 to 282 °C.

With `CCOC(=O)c1cc(NCc2ccccc2)c(Nc2ccc(Cl)cc2)c(S(N)(=O)=O)c1`, the melting point was 187 °C.

As to `CCCCCCCC(=O)NCc1cccc(-c2ccc(CCC(=O)O)cc2)c1`, the melting point fell in the range of 124 to 125 °C.

As for `CC(=NNc1ccc(C2=NNC(=O)CC2C)cc1)c1cc(O)ccc1O` (stereo unspecified), the melting point lay in the range of 279 to 284 °C.

For orientation: melting point means the temperature, or range, at which the solid turns liquid.
